# Reference: the supplement of paper PMC10307832
# What was measured:
# Experiment in all cases: relative viability (nuclei count vs DMSO), 5 days (fraction); higher = more cells survive
# [1] = system: NCI-H2085
# Summary of the method: (§1)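 For relative viability, nuclei counts in treated wells were divided by those in vehicle wells. Lung cancer cell lines had been pin-tool dosed in 1536-well plates the day after seeding and cultured for 5 days, then fixed and stained in one step (final 0.05% Triton X-100, 1% formaldehyde, 1 ug/ml Hoechst) and imaged at 4×. Doses were one drug alone or a fixed anchor-drug dose plus five library-drug doses (not always all listed) in √10 steps, and values are duplicate-plate medians.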
# [2] = system: NCI-H460
# Summary of the method: as §1
# [3] = system: NCI-H1993
# Summary of the method: as §1
# [4] = system: LK-2
# Summary of the method: as §1
# [5] = system: ChaGo-K-1
# Summary of the method: as §1
# [6] = system: NCI-H1355
# Summary of the method: as §1
# [7] = system: NCI-H838
# Summary of the method: as §1
# [8] = system: LCLC-97TM1
# Summary of the method: as §1
# [9] = system: NCI-H2405
# Summary of the method: as §1
# [10] = system: 201T
# Summary of the method: as §1
# [11] = system: HCC-15
# Summary of the method: as §1
# [12] = system: NCI-H3122
# Summary of the method: as §1
# [13] = system: HCC-78
# Summary of the method: as §1
# [14] = system: HARA
# Summary of the method: as §1
# [15] = system: HCC-366
# Summary of the method: as §1
# [16] = system: NCI-H1734
# Summary of the method: as §1
# [17] = system: NCI-H1792
# Summary of the method: as §1
# [18] = system: LOU-NH91
# Summary of the method: as §1
# [19] = system: NCI-H1975
# Summary of the method: as §1
structure (smiles),measurement,setting,value
Oc1nc(-c2ccc(C(F)(F)F)cc2)nc2c1CSCC2 [XAV939] + NC(=O)Nc1cc(-c2cccc(F)c2)sc1C(=O)N[C@H]1CCCNC1 [AZD7762] (partner 0.2 µM),relative viability,[1]; first compound 0.08 µM,1.07
same,relative viability,[1]; first compound 0.253 µM,0.876
same,relative viability,[1]; first compound 0.8 µM,0.896
same,relative viability,[1]; first compound 2.53 µM,0.881
same,relative viability,[2]; first compound 0.08 µM,0.765
same,relative viability,[2]; first compound 0.253 µM,0.631
same,relative viability,[2]; first compound 0.8 µM,0.636
same,relative viability,[2]; first compound 2.53 µM,0.551
same,relative viability,[3]; first compound 0.08 µM,0.923
same,relative viability,[3]; first compound 0.253 µM,0.569
same,relative viability,[3]; first compound 0.8 µM,0.62
same,relative viability,[3]; first compound 2.53 µM,0.653
same,relative viability,[4]; first compound 0.08 µM,0.375
same,relative viability,[4]; first compound 0.253 µM,0.429
same,relative viability,[4]; first compound 0.8 µM,0.344
same,relative viability,[4]; first compound 2.53 µM,0.238
same,relative viability,[5]; first compound 0.08 µM,0.904
same,relative viability,[5]; first compound 0.253 µM,0.686
same,relative viability,[5]; first compound 0.8 µM,0.717
same,relative viability,[5]; first compound 2.53 µM,0.754
same,relative viability,[6]; first compound 0.08 µM,0.728
same,relative viability,[6]; first compound 0.253 µM,0.613
same,relative viability,[6]; first compound 0.8 µM,0.626
same,relative viability,[6]; first compound 2.53 µM,0.561
same,relative viability,[7]; first compound 0.08 µM,0.93
same,relative viability,[7]; first compound 0.253 µM,0.842
same,relative viability,[7]; first compound 0.8 µM,0.923
same,relative viability,[7]; first compound 2.53 µM,0.799
same,relative viability,[8]; first compound 0.08 µM,0.446
same,relative viability,[8]; first compound 0.8 µM,0.208
same,relative viability,[8]; first compound 2.53 µM,0.172
same,relative viability,[9]; first compound 0.08 µM,0.701
same,relative viability,[9]; first compound 0.253 µM,0.731
same,relative viability,[9]; first compound 0.8 µM,0.672
same,relative viability,[9]; first compound 2.53 µM,0.569
same,relative viability,[10]; first compound 0.08 µM,0.781
same,relative viability,[10]; first compound 0.253 µM,0.497
same,relative viability,[10]; first compound 0.8 µM,0.724
same,relative viability,[10]; first compound 2.53 µM,0.64
same,relative viability,[11]; first compound 0.08 µM,1.31
same,relative viability,[11]; first compound 0.253 µM,1.15
same,relative viability,[11]; first compound 0.8 µM,1.21
same,relative viability,[11]; first compound 2.53 µM,1.08
same,relative viability,[12]; first compound 0.08 µM,1.01
same,relative viability,[12]; first compound 0.253 µM,0.964
same,relative viability,[12]; first compound 0.8 µM,0.9
same,relative viability,[12]; first compound 2.53 µM,0.573
same,relative viability,[13]; first compound 0.08 µM,0.595
same,relative viability,[13]; first compound 0.253 µM,0.514
same,relative viability,[13]; first compound 0.8 µM,0.648
same,relative viability,[13]; first compound 2.53 µM,0.527
same,relative viability,[14]; first compound 0.08 µM,0.671
same,relative viability,[14]; first compound 0.253 µM,0.305
same,relative viability,[14]; first compound 0.8 µM,0.271
same,relative viability,[14]; first compound 2.53 µM,0.294
same,relative viability,[15]; first compound 0.08 µM,0.423
same,relative viability,[15]; first compound 0.253 µM,0.211
same,relative viability,[15]; first compound 0.8 µM,0.188
same,relative viability,[15]; first compound 2.53 µM,0.132
same,relative viability,[16]; first compound 0.08 µM,0.617
same,relative viability,[16]; first compound 0.253 µM,0.515
same,relative viability,[16]; first compound 0.8 µM,0.59
same,relative viability,[16]; first compound 2.53 µM,0.51
same,relative viability,[17]; first compound 0.08 µM,0.823
same,relative viability,[17]; first compound 0.253 µM,0.595
same,relative viability,[17]; first compound 0.8 µM,0.636
same,relative viability,[17]; first compound 2.53 µM,0.591
same,relative viability,[18]; first compound 0.08 µM,0.762
same,relative viability,[18]; first compound 0.253 µM,0.681
same,relative viability,[18]; first compound 0.8 µM,0.687
same,relative viability,[18]; first compound 2.53 µM,0.692
same,relative viability,[19]; first compound 0.08 µM,0.684
same,relative viability,[19]; first compound 0.253 µM,0.534
same,relative viability,[19]; first compound 0.8 µM,0.504
same,relative viability,[19]; first compound 2.53 µM,0.516
